Activity calls are given as the source filed them. The calls are words filed in the database; no cut-off is given here.

Series [1] has as its system Trypanosoma cruzi. The series can be described thus: Trypanocidal activity against Trypanosoma cruzi MHOM/Pe/2011/Arequipa DTU 5 amastigotes infected in African green monkey Vero cells assessed as infected cells at 50 uM after 72 hrs by Giemsa-staining based assay. It is filed as functional.
Series [2] is described as follows: Hepatotoxicity in Balb/c mouse infected with Trypanosoma cruzi MHOM/Pe/2011/Arequipa DTU 5 trypomastigotes assessed as change in ratio of serum AST to GOT level at 20 mg/kg, po once daily for 5 consecutive days starting from day 10 post infection measured on day 127 post infection by biochemical analysis (reference value: 179 U/L). As to conditions: in vivo. Format: toxicity, organism-based.

For series [3], the system named is Trypanosoma cruzi. In words: Trypanocidal activity against Trypanosoma cruzi IRHOD/CO/2008/SN3 DTU 1 epimastigotes after 72 hrs by resazurin dye based assay. As to conditions: IRHOD/CO/2008/SN3 DTU 1, 72 h. It is filed as functional, organism-based.
The subject of series [4] is Trypanosoma cruzi. In words: Antitrypanosomal activity against Trypanosoma cruzi MHOM/Pe/2011/Arequipa DTU 5 epimastigotes assessed as effect on parasite glycolytic pathway by measuring increase in pyruvate excretion at IC25 after 72 hrs by 1H NMR method. Format: functional, organism-based.
The subject of series [5] is Trypanosoma cruzi. In words: Antitrypanosomal activity against Trypanosoma cruzi MHOM/Pe/2011/Arequipa DTU 5 epimastigotes assessed as effect on parasite glycolytic pathway by measuring increase in acetate excretion at IC25 after 72 hrs by 1H NMR method. Format: functional, organism-based.
Series [6] is described as follows: Selectivity index, ratio of IC50 for African green monkey Vero cells to IC50 for Trypanosoma cruzi MHOM/Pe/2011/Arequipa DTU 5 trypomastigotes derived from infected Balb/c mouse. As to conditions: read-out: Ratio IC50. It is filed as toxicity.
The test system of series [7] is Trypanosoma cruzi. The series can be described thus: Trypanocidal activity against Trypanosoma cruzi IRHOD/CO/2008/SN3 DTU 1 amastigotes infected in African green monkey Vero cells after 72 hrs by Giemsa-staining based microscopic assay. Format: functional, organism-based. The note with it: IRHOD/CO/2008/SN3 DTU 1, Vero.
Series [8] concerns Trypanosoma cruzi. In words: Antitrypanosomal activity against Trypanosoma cruzi MHOM/Pe/2011/Arequipa DTU 5 epimastigotes assessed as effect on parasite glycolytic pathway by measuring increase in D-lactate excretion at IC25 after 72 hrs by 1H NMR method. Format: functional, organism-based.
In series [9] the test system is Trypanosoma cruzi. The series can be described thus: Antitrypanosomal activity against Trypanosoma cruzi MHOM/Pe/2011/Arequipa DTU 5 epimastigotes assessed as effect on parasite glycolytic pathway by measuring increase in ethanol excretion at IC25 after 72 hrs by 1H NMR method. It is filed as functional.
The nature of series [10]: Cardiotoxicity in Balb/c mouse infected with Trypanosoma cruzi MHOM/Pe/2011/Arequipa DTU 5 trypomastigotes assessed as decrease in serum LDH level at 20 mg/kg, po once daily for 5 consecutive days starting from day 75 post infection measured on day 81 post infection relative to control. Format: toxicity, organism-based. As to conditions: in vivo.
The nature of series [11]: Hepatotoxicity in Balb/c mouse infected with Trypanosoma cruzi MHOM/Pe/2011/Arequipa DTU 5 trypomastigotes assessed as increase in ratio of serum AST to GOT level at 20 mg/kg, po once daily for 5 consecutive days starting from day 75 post infection measured on day 127 post infection relative to control. The note with it: in vivo. It is filed as toxicity, organism-based.

The nature of series [12]: Hepatotoxicity in Balb/c mouse infected with Trypanosoma cruzi MHOM/Pe/2011/Arequipa DTU 5 trypomastigotes assessed as increase in total bilirubin level at 20 mg/kg, po once daily for 5 consecutive days starting from day 10 post infection measured on day 16 post infection relative to control. It is filed as toxicity, organism-based. The note with it: in vivo.
Series [13] can be described thus: Cardiotoxicity in Balb/c mouse infected with Trypanosoma cruzi MHOM/Pe/2011/Arequipa DTU 5 trypomastigotes assessed as decrease in ratio of creatine kinase in muscle to brain at 20 mg/kg, po once daily for 5 consecutive days starting from day 75 post infection measured on day 81 post infection relative to control. It is filed as toxicity, organism-based. The note with it: in vivo.

The nature of series [14]: Cardiotoxicity in Balb/c mouse infected with Trypanosoma cruzi MHOM/Pe/2011/Arequipa DTU 5 trypomastigotes assessed as decrease in serum LDH level at 20 mg/kg, po once daily for 5 consecutive days starting from day 75 post infection measured on day 127 post infection relative to control. As to conditions: in vivo. It is filed as toxicity, organism-based.
Series [15] can be described thus: Hepatotoxicity in Balb/c mouse infected with Trypanosoma cruzi MHOM/Pe/2011/Arequipa DTU 5 trypomastigotes assessed as increase in serum ALT to GPT level at 20 mg/kg, po once daily for 5 consecutive days starting from day 10 post infection measured on day 16 post infection relative to control. It is filed as toxicity, organism-based. As to conditions: in vivo.

The nature of series [16]: Hepatotoxicity in Balb/c mouse infected with Trypanosoma cruzi MHOM/Pe/2011/Arequipa DTU 5 trypomastigotes assessed as increase in total bilirubin level at 20 mg/kg, po once daily for 5 consecutive days starting from day 10 post infection measured on day 127 post infection by biochemical analysis relative to control. Format: toxicity, organism-based. The note with it: in vivo.

A short description of series [17]: Hepatotoxicity in Balb/c mouse infected with Trypanosoma cruzi MHOM/Pe/2011/Arequipa DTU 5 trypomastigotes assessed as increase in alkaline phosphatase level at 20 mg/kg, po once daily for 5 consecutive days starting from day 75 post infection measured on day 127 post infection relative to control. It is filed as toxicity, organism-based. The note with it: in vivo.

Series [18] in a line: Hepatotoxicity in Balb/c mouse infected with Trypanosoma cruzi MHOM/Pe/2011/Arequipa DTU 5 trypomastigotes assessed as increase in ratio of serum AST to GOT level at 20 mg/kg, po once daily for 5 consecutive days starting from day 10 post infection measured on day 127 post infection by biochemical analysis relative to control. Format: toxicity, organism-based. As to conditions: in vivo.

Series [19] is described as follows: Nephrotoxicity in Balb/c mouse infected with Trypanosoma cruzi MHOM/Pe/2011/Arequipa DTU 5 trypomastigotes assessed as decrease in serum uric acid level at 20 mg/kg, po once daily for 5 consecutive days starting from day 10 post infection measured on day 127 post infection relative to control. Format: toxicity, organism-based. As to conditions: in vivo.
Series [20] relates to Trypanosoma cruzi. In words: Antitrypanosomal activity against Trypanosoma cruzi MHOM/Pe/2011/Arequipa DTU 5 epimastigotes assessed as effect on parasite glycolytic pathway by measuring decrease in acetate excretion at IC25 after 72 hrs by 1H NMR method. It is filed as functional, organism-based.
Series [21] relates to Trypanosoma cruzi. The series can be described thus: Antitrypanosomal activity against Trypanosoma cruzi MHOM/Pe/2011/Arequipa DTU 5 epimastigotes assessed as effect on parasite glycolytic pathway by measuring decrease in ethanol excretion at IC25 after 72 hrs by 1H NMR method. Format: functional, organism-based.
The nature of series [22]: Hepatotoxicity in Balb/c mouse infected with Trypanosoma cruzi MHOM/Pe/2011/Arequipa DTU 5 trypomastigotes assessed as change in total bilirubin level at 20 mg/kg, po once daily for 5 consecutive days starting from day 75 post infection measured on day 127 post infection (reference value: 0.23 mg/dl). As to conditions: in vivo. Format: toxicity, organism-based.
Series [23] relates to Trypanosoma cruzi. The series can be described thus: Trypanocidal activity against Trypanosoma cruzi MHOM/Pe/2011/Arequipa DTU 5 amastigotes infected in African green monkey Vero cells assessed as reduction in infected cells at <= 12 uM after 72 hrs by Giemsa-staining based assay. Format: functional, organism-based.
In series [24] the test system is Trypanosoma cruzi. The series can be described thus: Antitrypanosomal activity against Trypanosoma cruzi MHOM/Pe/2011/Arequipa DTU 5 epimastigotes assessed as effect on parasite glycolytic pathway by measuring decrease in pyruvate excretion at IC25 after 72 hrs by 1H NMR method. Format: functional. Also on record: scale not given: the % may be the effect or the level left.

Series [25] relates to Trypanosoma cruzi. The series can be described thus: Antitrypanosomal activity against Trypanosoma cruzi MHOM/Pe/2011/Arequipa DTU 5 epimastigotes assessed as effect on parasite glycolytic pathway by measuring decrease in L-alanine excretion at IC25 after 72 hrs by 1H NMR method. It is filed as functional, organism-based.
Series [26] deals with Trypanosoma cruzi. In words: Antitrypanosomal activity against Trypanosoma cruzi MHOM/Pe/2011/Arequipa DTU 5 epimastigotes assessed as effect on parasite glycolytic pathway by measuring decrease in D-lactate excretion at IC25 after 72 hrs by 1H NMR method. Format: functional, organism-based.

In general, IC50 refers to the concentration that inhibits the measured activity by half. In the case of `CCCCCCCCCCCCCCCCNc1c(N(C)CCCN(C)C)c(=O)c1=O`, the Activity with Trypanosoma cruzi [1] is reported as 0; in [2], 179 U/L; in the series with Trypanosoma cruzi [9], 51%. In addition, the IC50 turned out to be 16 µM in the series on Trypanosoma cruzi [3] and 18.9 µM in the series with Trypanosoma cruzi [7]. Moreover, the result with Trypanosoma cruzi [4], in the series on Trypanosoma cruzi [5] and with Trypanosoma cruzi [8] was Active. The selectivity ratio in series [6] is 154.

Take `O=C(Cn1ccnc1[N+](=O)[O-])NCc1ccccc1` [BENZNIDAZOLE]: the Activity in series [10] was 20 to 30 U/L; in series [11] it was 10 to 20 U/L; in series [12], 20 to 30 mg/dL; in series [13], 10 to 20 U/L; in series [14] it was 10 to 20 U/L; in series [15] it was greater than 40 U/L. Besides, the Activity in series [16] is 10%; in series [17], 20 to 30 U/L; in series [18] it was greater than 40 U/L.

In the case of `CCCCCCNc1c(N(C)CCCN(C)C)c(=O)c1=O`, the Activity in series [19] is 10 to 20 mg/dL; in series [22], 0.2 mg/dL; with Trypanosoma cruzi [24], 30%; in series [18], 20 to 30 U/L. Further, the result in the series on Trypanosoma cruzi [20], in the series with Trypanosoma cruzi [21], in the series with Trypanosoma cruzi [25] and in the series on Trypanosoma cruzi [26] was Active. The IC50 in the series with Trypanosoma cruzi [3] was determined as 14.3 µM; with Trypanosoma cruzi [7] it was 50 µM. Further, the result with Trypanosoma cruzi [23] was inactive. Besides, the selectivity ratio in series [6] came to 139.

The values above are taken from ChEMBL document CHEMBL4411344, “Synthesis and biological evaluation of new long-chain squaramides as anti-chagasic agents in the BALB/c mouse model” (Bioorg Med Chem, 2019).
